# Results from patent US6469013B2, “Therapeutic compounds” (Parker Hughes Institute, priority 1998, dated 2002).
# Tested on: skh-1 mice
# Experiment: Acute UVB skin inflammation: skinfold thickness, morphology, histology
# Format: in vivo, mouse
# Details: 48 h post UVB; UVB vehicle 3-5, normal 2-3
# Source text: A bank of 8-FSX24T12/HO/UVB lamps (National Biological Corporation, Twinsburg, Ohio) that emits light predominantly in the UVB range, 280-320 nm was used to irradiate mice and cell cultures. The irradiance of UVB lamps was always measured before irradiation using a UVB meter (model—500C obtained from National Biological Corporation, Twinsburg, Ohio). The dose of UVB light used to irradiate cultures was 25 mj/cm^2. Anesthetized mice received UVB radiations to a 2.0 cm^2 area on their dorsal surface. This area was painted either with the test compound (1.5 mg/cm^2) in drug receiving mice, or with vehicle in control mice fifteen minutes before irradiation. The distance between UVB lamps and surface receiving irradiation was 20 cm. The final radiation dose received by skh-1 hairless mice was 250 mj/cm^2 which is approximately seven times higher than the minimal erythema dose (MED) (17) in these mice. […]
# Morphological appearance of the UVB irradiated skin was monitored visually and compared with the control mice skin. Skinfold thickness of the dorsal surface of the mice was recorded before, and everyday after UVB exposure for five days with a digital thickness gauge (Mitutoyo, So. Plainfield, N.J.) which measures thickness in 0-10 mm range with an accuracy of 0.015 mm. […]
smiles,measurement,value
"COc1cc2ncnc(Nc3ccc(O)cc3)c2cc1OC [WHI-P131, 4-(4′-hydroxyl-phenyl)-amino-6,7-dimethoxyquinazoline]",cell layers of epidermis,1-2 cell layers
